These are literature values, as cited in patent US20120058097A1, “COMPOSITIONS INCLUDING A SODIUM CHANNEL BLOCKER AND A B VITAMIN MOLECULE AND METHODS OF USE THEREOF” (MS THERAPEUTICS LIMITED, priority 2010, published 2012).

In series [1] the test system is people with secondary progressive multiple sclerosis.
For series [2] the following is noted: in vivo.

Take `Nc1nnc(-c2cccc(Cl)c2Cl)c(N)n1` [lamotrigine, 3,5-diamino-6-(2,3-dichlorophenyl)-1,2,4-triaz-ine]: the “deterioration of walking speed” value in series [1] (compared to the control group, 120 people with secondary progressive multiple sclerosis) is recorded as “approximately halve the deterioration of walking speed”. The “MRI measurements of brain volume” value in series [1] (primary outcome measure, 2 year trial) is on record as “early reduction in brain volume which was reversible over the 2 year course of the trial”. In addition, the half life in series [2] is 23 to 36 h.
